Results reported in patent US11485987B2, “Methods for inducing bioorthogonal reactivity” (University of Delaware, priority 2015, dated 2022).
Values belong to the compound of their own block, whether it stands above or below them.

How the values were obtained:
[1] = Dihydrotetrazine oxidative stability (UV-vis); type: physicochemical
Excerpt: A challenge to the development of catalytic methods for turning on the tetrazine ligation was the identification of a DHTz/Tz pair that would be stable in both oxidation states (FIG. 1, panel B). For most redox couples, either the DHTz is too readily oxidized in air (e.g., 1), or the Tz is too reactive toward water and other nucleophiles (e.g., 2). The inventors show here that the dipyridyl DHTz/Tz pair (3/4) has good stability in both states (FIG. 1, panel C). Dihydrotetrazines 3 are highly resistant toward background oxidation in organic solvents, and a number of derivatives have been synthesized and shown stable even to silica gel chromatography. […] Aqueous solutions of 3a were handled in glassware that had been first rinsed with 2.0 mM EDTA in PBS to remove adventitious metal impurities. After standing in the dark at 25° C. in PBS buffer, a solution of 3a was monitored by UV-vis and shown to retain 99 and 96% of the DHTz oxidation state over 30 min and 2.5 hours respectively. […] In PBS containing 10% mouse serum, 90% of 3a was retained in the DHTz oxidation state after 1 h. Analogs of tetrazines 4 have been described previously and used broadly for applications in nuclear medicine and cell imaging. […] The stability of a radiolabeled derivative of tetrazine 4b has been studied by Robillard at 37° C. in PBS, serum and blood, with 97%, 87% and 59% retention of the tetrazine observed after 2 hours.
A solution (3 mL) containing 3a (35 μM) in PBS buffer was prepared in a cuvette from stock solutions. Oxidation was monitored by recording solution absorbance at 0, 30 and 150 minutes. The cuvette was stored in the dark between measurements. Comparison of HRP, cytochrome C and hemoglobin: Solutions (1 mL) of 3a (30 μM) in PBS buffer were prepared in a cuvette from stock solutions. To the solutions, either hemoglobin ([…]) or cytochrome C (9 μM) were added and while oxidation was monitored every 30 seconds by measuring absorbance at 325 nm.

APEX2 (SEQ ID NO:1) = molecular target: T1, APEX2 (SEQ ID NO:1) (Glycine max, UniProt Q43758, A134P/E112K/K14D/W41F); test: Oxidation of DHT by APEX2, UV-Vis initial rates and kinetic parameters; type: biochemical; settings: for Initial rate of oxidation of DHT by APEX2 (SEQ ID NO: 1) / Initial rate of oxidation of DHT by APEX2 (SEQ ID NO: 1) + SOD: PBS, 100 μM EDTA, first 100 s; for Initial rate of oxidation of DHT by APEX2 (SEQ ID NO: 1) + SOD: SOD 1 μM
T1 sequence (Q43758 1-250 A134P/E112K/K14D/W41F): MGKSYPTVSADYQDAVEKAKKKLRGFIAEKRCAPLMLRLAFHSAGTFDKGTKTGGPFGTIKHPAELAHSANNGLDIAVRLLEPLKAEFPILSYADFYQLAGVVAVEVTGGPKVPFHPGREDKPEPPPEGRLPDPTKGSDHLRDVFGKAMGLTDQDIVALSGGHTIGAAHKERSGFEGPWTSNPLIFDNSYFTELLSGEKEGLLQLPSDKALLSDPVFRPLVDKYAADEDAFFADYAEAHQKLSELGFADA
Description: UV-Vis and fluorescence measurements were conducted in quartz cuvettes. All reactions were conducted in phosphate buffered saline (PBS) containing 100 μM EDTA with a pH=7.4. The PBS was prepared by adding 25 mM phosphate salts (Na2HPO4 and NaH2PO4), 100 mM NaCl, 100 μM EDTA to DI water. EDTA was added to quench free metals that can oxidize DHT. The buffer was pH adjusted to 7.4 using 1 mM HCl and 1 mM NaOH. UV experiments were stirred at 25° C. in a temperature-controlled cuvette holder of the spectrophotometer. Solutions of 15 or 16 were prepared from methanol stock solutions.
15 or 16 (60 μM) from methanol stock solutions was added to PBS containing 100 μM EDTA. After 10s, APEX2 (SEQ ID NO:1) (275 nM) was dosed in and oxidation was monitored at 325 nm for 15 and 285 nm for 16 at 60s intervals (FIG. 10B-C).
16 (15 μM) DHT from methanol stock solutions was added to PBS containing 100 μM EDTA. After 10s, APEX2 (SEQ ID NO:1) (275 nM) or HRP (15 nM) was dosed in and oxidation was monitored at 285 nm at 10s intervals (FIG. 10D)
SOD (1 μM) was added to PBS containing 100 μM EDTA. 15 or 16 (60 μM) was added from methanol stock solutions. After 10s, APEX2 (SEQ ID NO:1) or F41A APEX2 (275 nM) was dosed in and oxidation was monitored at 325 nm for 15 and 285 nm for 16 at 60s intervals.
The initial rate of oxidation was calculated from the first 100 seconds after APEX2 (SEQ ID NO:1) or F41A APEX2 was added ([…]). In the assays where SOD was added, SOD (1 μM) was added to PBS containing 100 μM EDTA and 15 or 16 was dosed in. 10 seconds later, APEX2 (SEQ ID NO:1) or F41A APEX2 ([…]) was added and the rate of oxidation was calculated from the first 100 seconds after APEX2 (SEQ ID NO:1) or F41A APEX2 ([…]) addition. The initial rate of oxidation was adjusted to background oxidation of DHT in PBS with 100 μM EDTA. Kinetic parameters (Table 2) were determined using GraphPad's Prism 6 software from the data presented below (Table 3-4).

retained DHTz oxidation state ([1]; 35 μM in MeOH, ambient light, 1 hour): 99%
retained DHTz oxidation state ([1]; 35 μM in MeOH, ambient light, 2 hours): 98%
retained DHTz oxidation state ([1]; PBS buffer, ambient light, 25° C., 1 hour): 97%
retained DHTz oxidation state ([1]; PBS buffer, ambient light, 25° C., 2 hours): 94%
retained DHTz oxidation state ([1]; PBS buffer, dark, 25° C., 30 min): 99%
retained DHTz oxidation state ([1]; PBS buffer, dark, 25° C., 2.5 hours): 96%
SMILES: O=C(O)CCC(=O)Nc1ccc(C2=NNC(c3ccccn3)=NN2)nc1 [3a, 4-oxo-4-((6-(6-(pyridin-2-yl)-1,4-dihydro-1,2,4,5-tetrazin-3-yl)pyridin-3-yl)amino)butanoic Acid]

SMILES: O=C(O)CCCC(=O)Nc1ccc(C2=NNC(c3ccccn3)=NN2)nc1 [compound 15]
rate of catalysis by APEX2 slower than by HRP (APEX2 (SEQ ID NO:1); APEX2 versus HRP (FIG. 10D)): approximately 100 ×
Initial rate of oxidation of DHT by APEX2 (SEQ ID NO: 1) (APEX2 (SEQ ID NO:1); DHT 5 μM): 0.903 +/− 0.026 ×10^−8 M/s
Initial rate of oxidation of DHT by APEX2 (SEQ ID NO: 1) + SOD (APEX2 (SEQ ID NO:1); DHT 6 μM): 1.104 +/− 0.028 ×10^−8 M/s
Initial rate of oxidation of DHT by APEX2 (SEQ ID NO: 1) (APEX2 (SEQ ID NO:1); DHT 10 μM): 1.286 +/− 0.141 ×10^−8 M/s
Initial rate of oxidation of DHT by APEX2 (SEQ ID NO: 1) + SOD (APEX2 (SEQ ID NO:1); DHT 12 μM): 1.831 +/− 0.169 ×10^−8 M/s
Initial rate of oxidation of DHT by APEX2 (SEQ ID NO: 1) (APEX2 (SEQ ID NO:1); DHT 15 μM): 1.442 +/− 0.298 ×10^−8 M/s
Initial rate of oxidation of DHT by APEX2 (SEQ ID NO: 1) + SOD (APEX2 (SEQ ID NO:1); DHT 15 μM): 1.765 +/− 0.172 ×10^−8 M/s
Initial rate of oxidation of DHT by APEX2 (SEQ ID NO: 1) (APEX2 (SEQ ID NO:1); DHT 20 μM): 1.872 +/− 0.028 ×10^−8 M/s
Initial rate of oxidation of DHT by APEX2 (SEQ ID NO: 1) + SOD (APEX2 (SEQ ID NO:1); DHT 20 μM): 2.166 +/− 0.201 ×10^−8 M/s
Initial rate of oxidation of DHT by APEX2 (SEQ ID NO: 1) (APEX2 (SEQ ID NO:1); DHT 25 μM): 1.628 +/− 0.133 ×10^−8 M/s
Initial rate of oxidation of DHT by APEX2 (SEQ ID NO: 1) + SOD (APEX2 (SEQ ID NO:1); DHT 25 μM): 2.937 +/− 0.487 ×10^−8 M/s
Initial rate of oxidation of DHT by APEX2 (SEQ ID NO: 1) (APEX2 (SEQ ID NO:1); DHT 30 μM): 1.878 +/− 0.055 ×10^−8 M/s
Initial rate of oxidation of DHT by APEX2 (SEQ ID NO: 1) + SOD (APEX2 (SEQ ID NO:1); DHT 30 μM): 2.418 +/− 0.038 ×10^−8 M/s
Initial rate of oxidation of DHT by APEX2 (SEQ ID NO: 1) (APEX2 (SEQ ID NO:1); DHT 40 μM): 2.305 +/− 0.101 ×10^−8 M/s
Initial rate of oxidation of DHT by APEX2 (SEQ ID NO: 1) + SOD (APEX2 (SEQ ID NO:1); DHT 40 μM): 3.230 +/− 0.348 ×10^−8 M/s
Initial rate of oxidation of DHT by APEX2 (SEQ ID NO: 1) (APEX2 (SEQ ID NO:1); DHT 50 μM): 2.445 +/− 0.303 ×10^−8 M/s
Initial rate of oxidation of DHT by APEX2 (SEQ ID NO: 1) + SOD (APEX2 (SEQ ID NO:1); DHT 50 μM): 3.305 +/− 0.436 ×10^−8 M/s
Initial rate of oxidation of DHT by APEX2 (SEQ ID NO: 1) (APEX2 (SEQ ID NO:1); DHT 60 μM): 2.603 +/− 0.306 ×10^−8 M/s
Initial rate of oxidation of DHT by APEX2 (SEQ ID NO: 1) + SOD (APEX2 (SEQ ID NO:1); DHT 60 μM): 4.169 +/− 0.242 ×10^−8 M/s
Initial rate of oxidation of DHT by APEX2 (SEQ ID NO: 1) (APEX2 (SEQ ID NO:1); DHT 70 μM): 3.197 +/− 0.025 ×10^−8 M/s
Initial rate of oxidation of DHT by APEX2 (SEQ ID NO: 1) (APEX2 (SEQ ID NO:1); DHT 75 μM): 3.460 +/− 0.492 ×10^−8 M/s
Initial rate of oxidation of DHT by APEX2 (SEQ ID NO: 1) + SOD (APEX2 (SEQ ID NO:1); DHT 75 μM): 4.196 +/− 0.444 ×10^−8 M/s
Initial rate of oxidation of DHT by APEX2 (SEQ ID NO: 1) (APEX2 (SEQ ID NO:1); DHT 85 μM): 3.978 +/− 0.119 ×10^−8 M/s
Initial rate of oxidation of DHT by APEX2 (SEQ ID NO: 1) + SOD (APEX2 (SEQ ID NO:1); DHT 85 μM): 4.939 +/− 0.202 ×10^−8 M/s
